Data published in US6927228B2, “Biaromatic compound activators of PPARγ-type receptors” (Galderma Research & Development, S.N.C., priority 2000, dated 2005).
Marks after values point to notes of the source that are not given here.

How the values were obtained:
[1] = target: T1, PPARγ receptors (Homo sapiens, UniProt P37231); experiment: PPARγ transactivation test; type: cell-based; set-up: expressed in transfected cells; conditions: concentration of 1 μM, relative to SB 219994 = 100%
T1 sequence (P37231 1-505): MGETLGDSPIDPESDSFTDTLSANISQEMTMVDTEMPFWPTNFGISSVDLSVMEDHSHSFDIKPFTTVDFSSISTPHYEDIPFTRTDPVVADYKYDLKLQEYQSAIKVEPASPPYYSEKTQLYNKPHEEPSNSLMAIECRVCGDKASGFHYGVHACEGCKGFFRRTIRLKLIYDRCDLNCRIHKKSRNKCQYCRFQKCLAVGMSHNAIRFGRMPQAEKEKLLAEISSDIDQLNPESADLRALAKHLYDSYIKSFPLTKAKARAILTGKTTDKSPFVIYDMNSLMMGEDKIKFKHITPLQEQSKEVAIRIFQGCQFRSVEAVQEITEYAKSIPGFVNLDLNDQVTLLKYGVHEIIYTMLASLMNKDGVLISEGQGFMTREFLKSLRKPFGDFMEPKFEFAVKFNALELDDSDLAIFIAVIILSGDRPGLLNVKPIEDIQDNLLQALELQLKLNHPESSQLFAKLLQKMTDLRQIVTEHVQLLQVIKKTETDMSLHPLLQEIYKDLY
Text: (§1) The agonist activity of the compounds according to the invention towards PPARγ receptors may be evaluated by binding tests and transactivation tests.

[2] = target: T1, PPARγ receptors; experiment: PPARγ binding test, competition with tritiated BRL 49,653; set-up: made in house; host or cells: Sf9 insect cells (recombinant baculovirus); conditions: hydroxyapatite gel, receptor from Sf9 insect cells, read-out: Binding of PPAR-γ Kd
Procedure: The technique of adsorption on hydroxyapatite gel was used to separate the receptor-bound ligand from the free ligand. The human PPARγ receptor was prepared from Sf9 insect cells infected with a recombinant baculovirus. The results are expressed as a Kd value (nM) which represents the equilibrium dissociation constant obtained for each compound.
as §1

[3] = target: T2, PPARα receptors (Homo sapiens, UniProt Q07869); experiment: PPARα transactivation test; type: cell-based; conditions: concentration of 1 μM, relative to Wy 14643 = 100%
T2 construct: expressed in transfected cells
T2 sequence (Q07869 1-468): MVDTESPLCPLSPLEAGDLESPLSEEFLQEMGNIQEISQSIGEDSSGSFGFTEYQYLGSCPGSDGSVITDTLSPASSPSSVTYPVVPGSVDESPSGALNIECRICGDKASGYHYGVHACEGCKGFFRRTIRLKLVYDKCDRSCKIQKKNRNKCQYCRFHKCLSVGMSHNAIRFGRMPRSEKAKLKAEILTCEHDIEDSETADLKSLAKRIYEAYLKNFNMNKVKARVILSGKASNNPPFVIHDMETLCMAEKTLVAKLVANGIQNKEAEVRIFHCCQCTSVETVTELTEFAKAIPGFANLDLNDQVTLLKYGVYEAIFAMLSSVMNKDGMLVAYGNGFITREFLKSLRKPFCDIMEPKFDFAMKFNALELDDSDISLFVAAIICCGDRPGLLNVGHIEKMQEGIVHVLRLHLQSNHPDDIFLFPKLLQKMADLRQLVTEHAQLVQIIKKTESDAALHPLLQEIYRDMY
Text: [Worded in the source for another target; this target is reported under the same test.] as §1

Row | % of activation of PPARγ [1] | Kd [2] | activation at 1 µM [1] | activation at 1 µM [3] | % of activation of PPARα [3] | SMILES
1 | 100% | 0.5 nM | – | – | – | CN(CCOc1ccc(C[C@H](OCC(F)(F)F)C(=O)O)cc1)c1nc2ccccc2o1 [Reference 2: SB 219994, reference compound]
2 | – | 72.3 nM | 95% | 8.7% | – | CN(Cc1cccc(-c2ccc(CC3SC(=O)NC3=O)cc2)c1)C(=O)CCc1ccccc1 (stereo not shown) [Example 24, N-[4′-(2,4-Dioxothiazolidin-5-ylmethyl)biphenyl-3-ylmethyl]-N-methyl-3-phenylpropionamide]
3 | – | – | 88.6% | 2.1% | – | CCCN(Cc1cccc(-c2ccc(C=C3SC(=O)NC3=O)cc2)c1)C(=O)c1ccccc1 [Example 26, N-[4′-(2,4-Dioxothiazolidin-5-ylidenemethyl)-biphenyl-3-ylmethyl]-N-propylbenzamide]
4 | – | 190 nM | 90% | 14.9% | – | CN(Cc1cccc(-c2ccc(CC3SC(=O)NC3=O)cc2)c1)C(=O)OCC1c2ccccc2-c2ccccc21 (stereo not shown) [Example 21, 9H-Fluoren-9-ylmethyl [4′-(2,4-dioxothiazolidin-5-ylmethyl)biphenyl-3-ylmethyl]methylcarbamate]
5 | – | – | – | – | 100* % | Cc1cccc(Nc2cc(Cl)nc(SCC(=O)O)n2)c1C [Reference 1: Wy 14643, reference compound]
6 | – | 76.6 nM | 95.3% | 7.5% | – | CN(Cc1cccc(-c2ccc(CC3SC(=O)NC3=O)cc2)c1)C(=O)C(C)(C)C (stereo not shown) [Example 22, N-[4′-(2,4-Dioxothiazolidin-5-ylmethyl)biphenyl-3-ylmethyl]-2,2,N-trimethylpropionamide]
7 | – | 55 nM | 102% | 8.2% | – | CN(Cc1cccc(-c2ccc(CC3SC(=O)NC3=O)cc2)c1)C(=O)c1ccccc1 (stereo not shown) [Example 1, N-[4′-(2,4-Dioxothiazolidin-5-ylmethyl)biphenyl-3-ylmethyl]-N-methylbenzamide]
8 | – | 2 nM | 102% | 17.6% | – | CCCCCCCC(=O)N(C)Cc1cccc(-c2ccc(CC3SC(=O)NC3=O)cc2)c1 (stereo not shown) [Example 34, N-[4′-(2,4-Dioxothiazolidin-5-ylmethyl)biphenyl-3-ylmethyl]-N-methyloctanamide]
9 | – | 263 nM | 42.9% | 8.2% | – | CN(Cc1cccc(-c2ccc(CC3SC(=O)NC3=O)cc2)c1)c1ccccn1 (stereo not shown) [Example 2, 5-{3′-[(Methylpyrid-2-ylamino)methyl]biphenyl-4-ylmethyl}thiazolidine-2,4-dione]
10 | – | – | 79.8% | 1.1% | – | CCOc1ccc(C(=O)N(C)Cc2cccc(-c3ccc(CC4SC(=O)NC4=O)cc3)c2)cc1OCC (stereo not shown) [Example 28, N-[4′-(2,4-Dioxothiazolidin-5-ylmethyl)biphenyl-3-ylmethyl]-3,4-diethoxy-N-methylbenzamide]
11 | – | 7 nM | 60.4% | 0% | – | CCCCCCCCC(=O)N(C)Cc1cccc(-c2ccc(CC3SC(=O)NC3=O)cc2)c1 (stereo not shown) [Example 12, N-[4′[2,4-dioxothiazolidin-5-ylmethyl)biphenyl-3-ylmethyl]-N-methylnonanamide]
12 | – | 800 nM | 22.1% | 0% | – | CN(Cc1cccc(-c2ccc(CC3SC(=O)NC3=O)cc2)c1)C(=O)Nc1ccccc1 (stereo not shown) [Example 10, 1-[4′-(2,4-Dioxothiazolidin-5-ylmethyl)biphenyl-3-ylmethyl]-1-methyl-3-phenylurea]
13 | – | – | 80.3% | 8.9% | – | CN(Cc1ccccc1)C(=O)c1cccc(-c2ccc(CC3SC(=O)NC3=O)cc2)c1 (stereo not shown) [Example 30, N-Benzyl-N-methyl-4′-(2,4-dioxothiazolidin-5-ylmethyl)biphenyl-3-carboxamide]
14 | – | 289 nM | 74.5% | 2.4% | – | CN(Cc1cccc(-c2ccc(CC3SC(=O)NC3=O)cc2)c1)C(=O)OC(C)(C)C (stereo not shown) [Example 11, tert-Butyl [4′-(2,4-dioxothiazolidin-5-ylmethyl)biphenyl-3-ylmethyl]methylcarbamate]
15 | – | – | 56% | 11% | – | CCCCCCC(=O)N(C)Cc1cccc(-c2ccc(CC3SC(=O)NC3=O)cc2)c1 (stereo not shown) [Example 35, N-[4′-(2,4-Dioxothiazolidin-5-ylmethyl)biphenyl-3-ylmethyl]-N-methylheptanamide]
16 | – | – | 74.9% | 0% | – | CCCCCCCCCC(=O)N(C)Cc1cccc(-c2ccc(CC3SC(=O)NC3=O)cc2)c1 (stereo not shown) [Example 32, N-[4′-(2,4-Dioxothiazolidin-5-ylmethyl)biphenyl-3-ylmethyl]-N-methyldecanamide]
17 | – | 24 nM | 70.2% | 0% | – | CCO[C@@H](Cc1ccc(-c2cccc(CN(C)C(=O)c3ccccc3)c2)cc1)C(=O)O [Example 13, (S)-2-Ethoxy-3-(3′-{[methyl-(1-phenylmethanoyl)-amino]methyl}biphenyl-4-yl)propionic acid]
